Source: PubChem BioAssay (NCI)
Where “and” joins values, the source holds several entries; their conditions need not be identical. Equal entries are not always repeated.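 48-hour exposure; five concentrations; linearly interpolated endpoints. GI50: concentration for 50% inhibition of growth. Definition used: TGI = concentration required for complete inhibition of growth.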

Columns and labels:
Assay in all cases: NCI tumour cell line growth inhibition, 48 h
BT-549 breast = system: BT-549 breast
HL-60(TB) leukemia = system: HL-60(TB) leukemia
K-562 leukemia = system: K-562 leukemia
MCF7 breast = system: MCF7 breast
MDA-MB-231 breast = system: MDA-MB-231 breast
NCI-H460 lung = system: NCI-H460 lung
OVCAR-8 ovarian = system: OVCAR-8 ovarian
SK-MEL-2 melanoma = system: SK-MEL-2 melanoma
SN12C renal = system: SN12C renal
SR leukemia = system: SR leukemia

Row | Structure (SMILES) | TGI (BT-549 breast) [µM] | TGI (HL-60(TB) leukemia) | TGI (K-562 leukemia) [µM] | TGI (MCF7 breast) [µM] | TGI (MDA-MB-231 breast) [µM] | TGI (NCI-H460 lung) [µM] | TGI (OVCAR-8 ovarian) [µM] | TGI (SK-MEL-2 melanoma) [µM] | TGI (SN12C renal) [µM] | TGI (SR leukemia) [µM] | GI50 (BT-549 breast) | GI50 (HL-60(TB) leukemia) | GI50 (K-562 leukemia) | GI50 (MCF7 breast) | GI50 (NCI-H460 lung) | GI50 (OVCAR-8 ovarian) | GI50 (SK-MEL-2 melanoma) | GI50 (MDA-MB-231 breast) [µM] | GI50 (SN12C renal) [µM] | GI50 (SR leukemia) [µM]
1 | O=C1c2ccccc2NC(c2cc(Cl)cc(Cl)c2O)N1CCc1ccccn1 (configuration not stated) | > 100 | > 100 µM | > 100 | > 100 | > 100 | > 100 | > 100 | > 100 | > 100 | > 100 |  |  |  |  |  |  |  |  |  | 
2 | COC(=O)CCC(C)[C@H]1CCC2C3C(C[C@H](OC(C)=O)[C@@]21C)[C@@]1(C)CCC2(C[C@H]1C[C@H]3OC(C)=O)OOC1(CCC(C)CC1)OO2 (some centres not stated) | > 100 | 27.7 µM and > 100 µM | > 100 | > 100 | > 100 | > 100 | > 100 | > 100 | > 100 | > 100 | 6.42 µM and 57 µM | 3.36 µM and 14.9 µM | 3.78 µM and 26.8 µM | 5.62 µM and 38.4 µM | 4.22 µM and 18.7 µM | 8.64 µM and 26.2 µM | 21.9 µM and 64.9 µM |  |  | 
3 | Oc1c(C(Nc2cccc3ccccc23)c2ccccc2)ccc2cccnc12 (configuration not stated) | 14.5 | 8.4 µM | > 100 | > 100 | 70.8 | 18.5 | 39.3 | > 100 | > 100 | 22.5 | 2.07 µM | 1.93 µM | 3.8 µM | 3.2 µM | 2.07 µM | 3.22 µM | 6.58 µM | 12 | 4.1 | 2.76
4 | Cc1cc(Cc2cc(C)c(O)c(C)c2)cc(C)c1O | 17.6 | 9.86 µM | 18.8 | 53.7 | 38.3 | 11.8 | > 100 | 11 | > 100 | 20.2 | 3.78 µM | 2.89 µM | 1.76 µM | 3.83 µM | 3.33 µM | 7.59 µM | 3.65 µM | 6.85 | 5.12 | 2.65
